According to article PMC10509784 (RSC Advances, 2023):
Like-named read-outs stand apart in the source and are kept apart here.

Key:
Assay type in all cases: cell-based
MDA-MB 231 = assay: MTT cytotoxicity on MDA-MB 231 breast cancer cells; settings: Homo sapiens, MDA-MB-231, read-out: MDA-MB 231 IC50
MCF-7 = assay: MTT cytotoxicity on MCF-7 breast cancer cells
Wi-38 = assay: MTT cytotoxicity on normal fibroblasts; settings: Homo sapiens, WI-38, read-out: Wi-38 IC50
P53 [1] = assay: Quantitative detection of P53 expression in treated MCF-7 cells; settings: MCF-7, vs control, mean ± SEM
caspase 3/7 [2] = assay: Caspase 3/7 activation assay in MCF-7 cells; settings: for Relative fold activation of caspase 3/7: MCF-7 treated with IC50, mean ± SEM; for activation of caspase 3/7: treated breast cancer cell lines (MCF-7 and MDA-MB 231), IC50s
BAX [3] = assay: BAX expression in treated MCF-7 cells; settings: for Relative fold change in BAX expression: MCF-7, mean ± SEM; for overexpression of apoptosis regulator BAX: tested cancer cell lines, MCF-7 and MDA-MB 231
Bcl-2 [4] = assay: Bcl-2 expression in treated MCF-7 cells; settings: for Relative fold change in Bcl-2 expression: MCF-7, mean ± SEM; for diminished levels of Bcl-2: tested cancer cell lines, MCF-7 and MDA-MB 231
Bcl-2 [5] = assay: Bcl-2 expression in treated MDA-MB 231 cells; settings: MDA-MB 231, mean ± SEM
caspase 3/7 [6] = assay: Caspase 3/7 activation assay in MDA-MB 231 cells; settings: MDA-MB 231 treated with IC50, mean ± SEM
BAX [7] = assay: BAX expression in treated MDA-MB 231 cells; settings: MDA-MB 231, mean ± SEM
P53 [8] = assay: Quantitative detection of P53 expression in treated MDA-MB 231 cells; settings: MDA-MB 231, vs control, mean ± SEM
[9] = Homo sapiens, MCF7, read-out: MCF-7 IC50, MTT, mean ± SEM
[10] = read-out: MCF-7 IC50, MTT, mean ± SEM

Row | Compound | IC50 (MDA-MB 231) [nM] | IC50 (MCF-7; [9]) [nM] | IC50 (Wi-38) [nM] | Relative fold change in the P53 expression (P53 [1]) [fold] | Relative fold activation of caspase 3/7 (caspase 3/7 [2]) [fold] | activation of caspase 3/7 (caspase 3/7 [2]) | Relative fold change in BAX expression (BAX [3]) [fold] | overexpression of apoptosis regulator BAX (BAX [3]) | Relative fold change in Bcl-2 expression (Bcl-2 [4]) [fold] | diminished levels of Bcl-2 (Bcl-2 [4]) | IC50 (MCF-7; [10]) [nM] | Relative fold change in Bcl-2 expression (Bcl-2 [5]) [fold] | Relative fold activation of caspase 3/7 (caspase 3/7 [6]) [fold] | Relative fold change in BAX expression (BAX [7]) [fold] | Relative fold change in the P53 expression (P53 [8]) [fold] | Relative fold change in the P53 expression (P53 [1]; listed as doxorubicin) [fold] | Relative fold change in the P53 expression (P53 [8]; listed as doxorubicin) [fold]
1 | CCOC(=O)c1ccc(NC(=O)C(c2ccccc2)N(C(=O)C(F)(F)F)c2ccccc2)cc1 (centres unmarked) [Compound 2, Ethyl-4-(-phenyl-2-(2,2,2-trifluoro-N-phenylacetamido)acetamido)benzoate] | 472 ± 13 | 369 ± 14 | 147 ± 20 |  |  |  |  |  |  |  |  |  |  |  |  |  | 
2 | CCOC(=O)c1ccc(NC(=O)C(c2ccccc2)N(C(=O)c2ccccc2C)c2ccccc2)cc1 (centres unmarked) [Compound 3, Ethyl-4-(2-(2-methyl-N-phenylbenzamido)-2-phenylacetamido)benzoate] | 306 ± 14 | ~80 | 1330 ± 84 | 4.110 ± 0.1014 | 3.470 ± 0.0485 | 2.6–4.1 folds | 2.448 ± 0.057 | 2.3–3.3 folds | 0.217 ± 0.006 | 0.13–0.49 folds | 86 ± 16 |  |  |  |  |  | 
3 | CCOC(=O)c1ccc(NC(=O)C(c2ccccc2)N(C(=O)c2ccccc2I)c2ccccc2)cc1 (centres unmarked) [Compound 4, Ethyl-4-(2-(2-iodo-N-phenylbenzamido)-2-phenylacetamido)benzoate] | 188 ± 44 | 96 ± 7 | 418 ± 33 | 4.137 ± 0.0407 | 3.113 ± 0.1012 | 2.6–4.1 folds | 2.747 ± 0.1285 | 2.3–3.3 folds | 0.233 ± 0.0017 | 0.13–0.49 folds |  | 0.496 ± 0.005 | 2.618 ± 0.1615 | 2.338 ± 0.021 | 3.309 ± 0.110 |  | 
4 | CCOC(=O)c1ccc(NC(=O)C(c2ccccc2)N(C(=O)c2ccccc2[N+](=O)[O-])c2ccccc2)cc1 (centres unmarked) [Compound 5, Ethyl-4-(2-(2-nitro-N-phenylbenzamido)-2-phenylacetamido)benzoate] | 302 ± 24 | 229 ± 42 | 570 ± 72 |  |  |  |  |  |  |  |  |  |  |  |  |  | 
5 | CCOC(=O)c1ccc(NC(=O)C(c2ccccc2)N(C(=O)c2cc([N+](=O)[O-])cc([N+](=O)[O-])c2)c2ccccc2)cc1 (centres unmarked) [Compound 6, Ethyl-4-(2-(3,5-dinitro-N-phenylbenzamido)-2-phenylacetamido)benzoate] | 370 ± 94 | 143 ± 16 | 538 ± 25 |  |  |  |  |  |  |  |  |  |  |  |  |  | 
6 | CCOC(=O)c1ccc(N2C(=O)C(c3ccccc3)N(c3ccccc3)C2=O)cc1 (centres unmarked) [Compound 8, Ethyl-4-(2,5-dioxo-3,4-diphenylimidazolidin-1-yl)benzoate] | 146 ± 34 | 78 ± 72 | 953 ± 37 | 4.810 ± 0.1014 | 3.763 ± 0.011 | 2.6–4.1 folds | 3.195 ± 0.082 | 2.3–3.3 folds | 0.163 ± 0.0035 | 0.13–0.49 folds |  | 0.454 ± 0.010 | 2.945 ± 0.0885 | 2.479 ± 0.030 | 3.733 ± 0.023 |  | 
7 | CCOC(=O)c1ccc(NC(=O)C2(OC(=O)c3ccccc3C)CCCCC2)cc1 [Compound 9, 1-((4-(Ethoxycarbonyl)phenyl)carbamoyl)cyclohexyl-2-methylbenzoate] | 445 ± 4 | 440 ± 6 | 608 ± 12 |  |  |  |  |  |  |  |  |  |  |  |  |  | 
8 | CCOC(=O)c1ccc(NC(=O)C2(OC(=O)c3ccc(N=[N+]=[N-])cc3)CCCCC2)cc1 [Compound 10, 1-((4-(Ethoxycarbonyl)phenyl)carbamoyl)cyclohexyl-4-azidobenzoate] | 470 ± 12 | 439 ± 5 | 505 ± 1 |  |  |  |  |  |  |  |  |  |  |  |  |  | 
9 | CCOC(=O)c1ccc(NC(=O)C2(OC(=O)c3ccc([N+](=O)[O-])cc3)CCCCC2)cc1 [Compound 11, 1-((4-(Ethoxycarbonyl)phenyl)carbamoyl)cyclohexyl 4-nitrobenzoate] | 756 ± 175 | 591 ± 35 | 516 ± 11 |  |  |  |  |  |  |  |  |  |  |  |  |  | 
10 | CCOC(=O)c1ccc(NC(=O)C2(OC(=O)c3ccc(NS(=O)(=O)c4ccccc4)cc3)CCCCC2)cc1 [Compound 12, 1-((4-(Ethoxycarbonyl)phenyl)carbamoyl)cyclohexyl-4-(phenylsulfonamido)benzoate] | 135 | 65 ± 50 | 633 ± 1 | 5.168 ± 0.0676 | 4.105 ± 0.0795 | 2.6–4.1 folds | 3.337 ± 0.1485 | 2.3–3.3 folds | 0.129 ± 0.0027 | 0.13–0.49 folds |  | 0.376 ± 0.037 | 3.304 ± 0.0745 | 2.683 ± 0.065 | 4.312 ± 0.075 |  | 
11 | CCOC(=O)c1ccc(NC(=O)C2(OC(=O)CNS(=O)(=O)c3ccccc3)CCCCC2)cc1 [Compound 13, Ethyl 4-(1-(2-(phenylsulfonamido)acetoxy)cyclohexanecarboxamido)benzoate] | 513 ± 66 | 142 ± 27 | 590 ± 26 |  |  |  |  |  |  |  |  |  |  |  |  |  | 
12 | O=C(O)OC1(C(=O)Nc2ccc(C(=O)O)cc2)CCCCC1 [Compound 15, 4-(1-(Carboxyoxy)cyclohexane-1-carboxamido)benzoic acid] | 261 ± 25 | 264 ± 159 | 827 ± 4 |  |  |  |  |  |  |  |  |  |  |  |  |  | 
13 | NNC(=O)c1ccc(NC(=O)C2(O)CCCCC2)cc1 [Compound 16, N-(4-(Hydrazinecarbonyl)phenyl)-1-hydroxycyclohexane-1-carboxamide] | 1030 ± 36 | 968 ± 36 | 3327 ± 32 |  |  |  |  |  |  |  |  |  |  |  |  |  | 
14 | O=C(NNC(=S)Nc1ccccc1)c1ccc(NC(=O)C2(O)CCCCC2)cc1 [Compound 17, 1-Hydroxy-N-(4-(2-(phenylcarbamothioyl)hydrazine-1-carbonyl)phenyl)cyclohexane-1-carboxamide] | 518 ± 81 | ~80 | 1540 ± 122 | 4.377 ± 0.144 | 3.677 ± 0.0145 | 2.6–4.1 folds | 3.042 ± 0.0365 | 2.3–3.3 folds | 0.201 ± 0.0075 | 0.13–0.49 folds | 82 ± 2 |  |  |  |  |  | 
15 | COc1cccc2c1C(=O)c1c(O)c3c(c(O)c1C2=O)C[C@@](O)(C(=O)CO)C[C@@H]3O[C@H]1C[C@H](N)[C@H](O)[C@H](C)O1 [Doxorubicin, reference compound] | 2830 ± 173 | 478 ± 76 | 272 ± 53 | 2.148 ± 0.174 | 1.881 ± 0.028 |  | 1.556 ± 0.054 |  | 0.592 ± 0.031 |  |  | 0.798 ± 0.044 | 1.272 ± 0.074 | 1.232 ± 0.019 | 1.623 ± 0.122 | 2.1 | 1.6
